Earlier results, collected in patent publication US10925995B2, “Absorber and absorbent article using the same” (LIVEDO CORPORATION, priority 2012, dated 2021).

conditions: in water at 25 degrees centigrade; no stage stated

| SMILES | acid dissociation constant pKa |
| --- | --- |
| Nc1cccc(C(=O)O)c1 [m-aminobenzoic acid] | 3.12 |
| N#Cc1ccc(C(=O)O)cc1 [p-cyanobenzoic acid] | 3.55 |
| O=C1O[C@H]([C@@H](O)CO)C(O)=C1O [L-ascorbic acid] | 4.03 |
| C=CCC(=O)O [vinyl acetic acid] | 4.12 |
| O=C(O)C(O)c1ccccc1 (stereo not shown) [mandelic acid] | 3.19 |
| O=C(O)C1CCCCC1 [cyclohexane carboxylic acid] | 4.70 |
| COC(=O)c1ccncc1 [methyl isonicotinate] | 3.26 |
| O=C(O)c1ccc(I)cc1 [p-iodobenzoic acid] | 4.00 |
| O=C(O)/C=C\c1ccccc1 [cinnamic acid (cis)] | 3.88 |
| O=C(O)c1ccc([N+](=O)[O-])cc1 [p-nitrobenzoic acid] | 3.44 |
| Nc1ccc(S(=O)(=O)O)cc1 [p-aniline sulfonic acid] | 3.23 |
| COc1ccccc1C(=O)O [o-anisic acid] | 4.09 |
| O=C(O)Cc1ccccc1 [phenylacetic acid] | 4.10 |
| CCCCCCC(=O)O [heptanoic acid] | 4.66 |
| CC(=O)CCC(=O)O [levulinic acid] | 4.44 |
| NCCCC(=O)O [4-aminobutyric acid] | 4.03 |
| CCCCC(=O)O [valeric acid] | 4.64 |
| O=C(O)CCCl [3-chloropropionic acid] | 3.92 |
| O=C(O)c1ccc(Br)cc1 [p-bromobenzoic acid] | 4.00 |
| C/C=C/C(=O)O [crotonic acid] | 4.69 |
| O=C(O)CCCCC(=O)O [adipic acid] | 4.26 |
| O=C(O)CCCCCC(=O)O [pimelic acid] | 4.31 |
| O=C(O)c1cccc([N+](=O)[O-])c1 [m-nitrobenzoic acid] | 3.45 |
| O=C(O)CCCC(=O)O [glutaric acid] | 4.13 |
| COC(=O)CC(O)(CC(=O)O)C(=O)O (stereo not shown) [citric acid monomethyl ester] | 4.35 |
| Nc1cccc(S(=O)(=O)O)c1 [m-aniline sulfonic acid] | 3.74 |
| O=C(O)c1cccc(I)c1 [m-iodobenzoic acid] | 3.85 |
| CCCCCC(=O)O [hexanoic acid] | 4.63 |
| O=C(O)c1cccc(Br)c1 [m-bromobenzoic acid] | 3.81 |
| O=C(O)CS [mercaptoacetic acid] | 3.43 |

same assay, conditions: in water at 25 degrees centigrade; second stage

| SMILES | acid dissociation constant pKa, second stage |
| --- | --- |
| Nc1ccc(C(=O)O)cc1 [p-aminobenzoic acid] | 4.85 |
| O=C(O)CC(O)(CC(=O)O)C(=O)O [citric acid] | 4.35 |
| O=C(O)/C=C/C(=O)O [fumaric acid] | 4.10 |
| Nc1ccccc1C(=O)O [o-aminobenzoic acid] | 4.95 |
| O=C(O)c1ccccc1C(=O)O [o-benzenedicarboxylic acid] | 4.93 |
| O=C(O)c1ccncc1 [isonicotinic acid] | 4.87 |
| O=C(O)C(O)C(O)C(=O)O (stereo not drawn) [d-tartaric acid] | 3.95 |
| O=C(O)[C@H](O)[C@@H](O)C(=O)O [(R,R)-tartaric acid] | 4.44 |
| O=C(O)c1ccc2ccccc2n1 [quinaldic acid] | 4.75 |

same assay, conditions: in water at 25 degrees centigrade; third stage

| SMILES | acid dissociation constant pKa, third stage |
| --- | --- |
| O=C(O)c1cccc(C(=O)O)n1 [2,6-pyridinedicarboxylic acid] | 4.68 |
